Measurements reported in ChEMBL document CHEMBL1201862, “PubChem BioAssay data set” (2004).
Each block holds one compound with its values, some of them ahead of it. Calls of active or inactive are those of the source.

Assays:
[1] = Luminescent dose response cell-based high throughput screening assay for inhibitors of the Janus kinase 2 mutant JAK2V617F. [Related pubchem assays: 1446 (Primary screen.), 1521 (Confirmation assay.), 1486 (Counter screen.)]; assay type: functional
[2] = target: T1, Microphthalmia-associated transcription factor (Homo sapiens, UniProt O75030); experiment: TRPM1 promoter luciferase signal decrease, dose response, MITF inhibitor project, cell-based, SK-MEL-5, cherry-picked, set 3 (AID 493073); assay type: functional
T1 sequence (O75030 whole entry): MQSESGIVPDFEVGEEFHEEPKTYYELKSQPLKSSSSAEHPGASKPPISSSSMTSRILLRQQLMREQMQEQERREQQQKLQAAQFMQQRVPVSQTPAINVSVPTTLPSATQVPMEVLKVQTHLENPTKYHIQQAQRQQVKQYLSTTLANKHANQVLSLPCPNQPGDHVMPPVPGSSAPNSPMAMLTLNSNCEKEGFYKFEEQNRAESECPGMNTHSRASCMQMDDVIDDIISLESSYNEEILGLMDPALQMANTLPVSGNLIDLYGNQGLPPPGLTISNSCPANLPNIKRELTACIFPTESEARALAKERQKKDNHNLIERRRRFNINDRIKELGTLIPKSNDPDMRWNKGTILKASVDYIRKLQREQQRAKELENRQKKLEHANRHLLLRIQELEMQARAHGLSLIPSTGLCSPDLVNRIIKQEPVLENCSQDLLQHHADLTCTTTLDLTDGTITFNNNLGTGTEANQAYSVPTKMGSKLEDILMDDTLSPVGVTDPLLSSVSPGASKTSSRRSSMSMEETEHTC

INS1 = experiment: beta cell apoptosis inhibitors, cytokine rescue, dose response, luminescence, retest (AID 449756); assay type: functional, cell-based; conditions: Rattus norvegicus;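 also: cell death triggered by IL-1 beta plus TNF-alpha plus IFN-gamma mixture; protective hits raise ATP signal compared with cytokine alone wells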
A-375 = experiment: A375 melanoma cell viability reduction, dose response, counter-screen for MITF modulator project, cherry-pick samples, set 2 (AID 540335); assay type: functional, cell-based; conditions: Homo sapiens
[3] = target: T2, Methionyl-tRNA synthetase, putative (Trypanosoma brucei brucei, UniProt Q38C91); assay type: functional, Trypanosoma brucei brucei strain 927/4 GUTat10.1
T2 sequence (Q38C91 whole entry): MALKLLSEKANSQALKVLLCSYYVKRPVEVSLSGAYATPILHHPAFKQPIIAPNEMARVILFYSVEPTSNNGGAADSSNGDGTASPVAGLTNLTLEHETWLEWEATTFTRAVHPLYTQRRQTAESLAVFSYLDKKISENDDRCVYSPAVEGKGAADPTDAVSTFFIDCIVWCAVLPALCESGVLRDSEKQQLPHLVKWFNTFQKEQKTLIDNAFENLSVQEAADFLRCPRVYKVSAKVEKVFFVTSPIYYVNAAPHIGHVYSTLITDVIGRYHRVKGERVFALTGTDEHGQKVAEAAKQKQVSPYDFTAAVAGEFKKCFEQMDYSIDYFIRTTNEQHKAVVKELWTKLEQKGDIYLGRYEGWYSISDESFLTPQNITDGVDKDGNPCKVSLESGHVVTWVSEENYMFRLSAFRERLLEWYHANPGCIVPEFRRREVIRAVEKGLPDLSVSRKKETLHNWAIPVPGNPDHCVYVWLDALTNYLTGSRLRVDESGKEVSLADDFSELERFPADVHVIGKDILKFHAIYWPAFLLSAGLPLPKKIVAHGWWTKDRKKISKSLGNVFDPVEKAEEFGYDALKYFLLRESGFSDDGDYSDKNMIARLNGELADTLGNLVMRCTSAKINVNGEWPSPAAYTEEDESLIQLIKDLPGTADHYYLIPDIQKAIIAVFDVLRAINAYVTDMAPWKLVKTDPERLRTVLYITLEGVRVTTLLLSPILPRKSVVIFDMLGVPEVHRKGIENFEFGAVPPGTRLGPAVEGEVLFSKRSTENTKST

[4] = Counterscreen for inhibitors of Trypanosoma brucei methionyl tRNA synthetase (MetRS): Luminescence-based cell-based high throughput dose response assay to identify compounds that are cytotoxic to Jurkat human T lymphocyte cells.; assay type: functional
[5] = target: T2, Methionyl-tRNA synthetase, putative; assay type: functional, Trypanosoma brucei brucei strain 927/4 GUTat10.1; remark: listed apart in the source
[6] = target: 26S proteasome non-ATPase regulatory subunit 14 (Homo sapiens, UniProt O00487); experiment: inhibition of proteasome subunit RPN11 – biochemical, fluorescence polarization, uHTS hits, confirmation (AID 602368); assay type: functional
[7] = target: 72 kDa type IV collagenase (Homo sapiens, UniProt P08253); experiment: Dose Response validation of uHTS RPN11 inhibitor hits using a MMP-2 Fluorescence assay.; assay type: functional
Prothrombin = Prothrombin (Bos taurus, UniProt P00735); experiment: thrombin inhibition, dose response, biochemical, fluorescence polarization, uHTS hits (AID 602369); assay type: functional
[8] = target: T3, Probable nicotinate-nucleotide adenylyltransferase (Staphylococcus aureus (strain N315), UniProt P65502); assay type: functional, Staphylococcus aureus subsp. aureus N315;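 as to IC50 Mean: confirmatory dose-response retesting of NadD inhibitor hits first found in an ultra-high-throughput screen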
[9] = target: T3, Probable nicotinate-nucleotide adenylyltransferase; assay type: functional, Staphylococcus aureus subsp. aureus N315; conditions: read-out: IC50_Mean
HEK293 [10] = experiment: inhibitors of LMP1-driven NF-kB reporter, dose response, cell-based, HEK293, luciferase, cherry-pick (AID 588343); assay type: functional; conditions: Homo sapiens
cells = assay type: functional, cell-based
[11] = target: Nuclear receptor subfamily 0 group B member 1 (Homo sapiens, UniProt P51843); assay type: functional, cell-based;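 also: HEK293T cells transfected with SF-1 and DAX-1 plus StAR promoter luciferase reporter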
[12] = A549 cell cytotoxicity, dose response, cytotoxicity control, plate reader, cherry-pick, antagonist series (AID 743412); assay type: functional, cell-based
[13] = LGR2 antagonists, dose response, cell-based, HEK293, CRE-luciferase reporter, cherry pick, set 2 (AID 743343); assay type: functional;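 also: transfected cells were stimulated with diluted bursicon conditioned medium after compound addition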
[14] = MC4R antagonists, dose response, counter-screen for LGR2 antagonist project, cell-based, plate reader, cherry pick (AID 743444); assay type: functional;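 also: transfected HEK 293 cells stimulated with alpha-MSH peptide; potency of inhibitors of the alpha-MSH evoked signal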
[15] = HEK293 cell cytotoxicity, dose response, cytotoxicity control, plate reader, cherry-picked samples (AID 743446); assay type: functional, cell-based
HEK293 [16] = experiment: NOD1 signaling inhibitors, primary screen, cell-based, luminescence, uHTS (AID 1578); assay type: functional; conditions: Homo sapiens
HEK293 [17] = experiment: cells; assay type: functional, cell-based; conditions: Homo sapiens
HEK293 [18] = experiment: cells; assay type: functional, cell-based; conditions: Homo sapiens; remark: listed apart in the source
[19] = target: Nucleotide-binding oligomerization domain-containing protein 2 (Homo sapiens, UniProt Q9HC29); experiment: NOD2 signaling inhibitors, cell-based, luminescence, uHTS, HEK293 (AID 1566); assay type: functional
HEK293 [20] = experiment: NOD2 signaling inhibitors in MDP-stimulated cells, cell-based, uHTS, luminescence (AID 2001); assay type: functional; conditions: Homo sapiens
HEK293 [21] = experiment: cells; assay type: functional, cell-based; conditions: Homo sapiens; remark: listed apart in the source
[22] = target: Beta-2 adrenergic receptor (Homo sapiens, UniProt P07550); experiment: beta2AR agonists driving receptor internalization, dose response, cell-based, FAP fluorogen, flow cytometry, cherry pick 1 (AID 588763); assay type: functional
Albumin = Albumin (Bos taurus, UniProt P02769); experiment: Counterscreen for inhibitors of T-cell receptor (TCR)-CD3 interaction: Fluorescence-based biochemical high throughput dose response assay to identify inhibitors of T-cell receptor (TCR)-CD3 interaction using a TAMRA-labeled BSA probe.; assay type: functional
[23] = AlphaScreen signal interference compounds, dose response, artefact control for ARNT-TACC3 interaction inhibitor project, biochemical, luminescence, cherry-pick (AID 651705); assay type: functional;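 also: AlphaScreen bead proximity signal that flags compounds interfering with the detection technology; potency reflects signal decrease which marks the compound as an assay artifact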

Sequence of Beta-2 adrenergic receptor (P07550 whole entry): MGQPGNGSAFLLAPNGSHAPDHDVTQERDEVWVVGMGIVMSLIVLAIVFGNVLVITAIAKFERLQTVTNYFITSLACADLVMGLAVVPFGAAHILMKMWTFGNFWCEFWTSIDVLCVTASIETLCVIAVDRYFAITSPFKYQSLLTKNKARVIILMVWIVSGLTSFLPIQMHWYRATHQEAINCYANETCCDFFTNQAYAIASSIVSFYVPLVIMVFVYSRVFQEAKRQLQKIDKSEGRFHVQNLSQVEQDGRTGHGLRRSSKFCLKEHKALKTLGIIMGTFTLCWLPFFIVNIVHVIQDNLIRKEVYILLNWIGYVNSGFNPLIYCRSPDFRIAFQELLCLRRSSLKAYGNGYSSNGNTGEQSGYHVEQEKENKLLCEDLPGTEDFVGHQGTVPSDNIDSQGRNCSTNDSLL
Sequence of Albumin (P02769 whole entry): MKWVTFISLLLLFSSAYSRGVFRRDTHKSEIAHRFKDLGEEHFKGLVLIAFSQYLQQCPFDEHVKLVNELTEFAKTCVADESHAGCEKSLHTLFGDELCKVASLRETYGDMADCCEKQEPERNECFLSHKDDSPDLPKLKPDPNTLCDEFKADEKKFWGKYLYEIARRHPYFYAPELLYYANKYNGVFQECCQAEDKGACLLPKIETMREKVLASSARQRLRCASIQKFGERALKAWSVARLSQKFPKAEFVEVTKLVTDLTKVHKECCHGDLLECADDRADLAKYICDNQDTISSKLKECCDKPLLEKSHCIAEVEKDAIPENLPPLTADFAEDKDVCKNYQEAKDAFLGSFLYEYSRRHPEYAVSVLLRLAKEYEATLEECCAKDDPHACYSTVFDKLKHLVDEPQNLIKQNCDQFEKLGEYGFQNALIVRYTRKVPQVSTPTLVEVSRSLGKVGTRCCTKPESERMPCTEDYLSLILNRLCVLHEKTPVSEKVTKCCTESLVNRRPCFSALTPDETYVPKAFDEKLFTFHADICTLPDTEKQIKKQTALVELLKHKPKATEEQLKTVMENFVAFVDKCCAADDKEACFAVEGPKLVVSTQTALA
Sequence of 72 kDa type IV collagenase (P08253 whole entry): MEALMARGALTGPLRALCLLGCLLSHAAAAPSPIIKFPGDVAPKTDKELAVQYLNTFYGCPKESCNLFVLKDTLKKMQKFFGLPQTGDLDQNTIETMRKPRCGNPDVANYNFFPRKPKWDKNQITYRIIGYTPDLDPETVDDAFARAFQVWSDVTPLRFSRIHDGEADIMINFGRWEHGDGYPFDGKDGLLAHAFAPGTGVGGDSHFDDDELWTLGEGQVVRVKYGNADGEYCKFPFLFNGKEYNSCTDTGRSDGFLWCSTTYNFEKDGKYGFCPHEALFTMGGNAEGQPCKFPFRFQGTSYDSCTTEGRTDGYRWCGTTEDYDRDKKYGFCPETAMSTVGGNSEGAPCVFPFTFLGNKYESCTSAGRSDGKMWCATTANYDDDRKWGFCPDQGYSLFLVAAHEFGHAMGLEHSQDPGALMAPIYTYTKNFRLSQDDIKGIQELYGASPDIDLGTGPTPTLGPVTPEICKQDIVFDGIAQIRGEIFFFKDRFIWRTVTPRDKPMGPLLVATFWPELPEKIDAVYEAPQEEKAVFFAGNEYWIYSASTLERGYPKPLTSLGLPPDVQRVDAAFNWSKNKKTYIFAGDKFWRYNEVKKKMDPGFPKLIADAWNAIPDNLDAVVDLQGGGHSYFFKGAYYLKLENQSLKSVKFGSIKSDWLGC
Sequence of 26S proteasome non-ATPase regulatory subunit 14 (O00487 whole entry): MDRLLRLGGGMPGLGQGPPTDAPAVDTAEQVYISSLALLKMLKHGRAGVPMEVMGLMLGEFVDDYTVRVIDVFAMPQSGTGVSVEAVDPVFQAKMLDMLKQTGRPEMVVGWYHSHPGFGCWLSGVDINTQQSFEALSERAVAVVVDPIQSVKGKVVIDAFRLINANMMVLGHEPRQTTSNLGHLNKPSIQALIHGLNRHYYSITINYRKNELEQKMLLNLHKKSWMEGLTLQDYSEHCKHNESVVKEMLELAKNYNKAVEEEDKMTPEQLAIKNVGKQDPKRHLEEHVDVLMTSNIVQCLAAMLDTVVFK
Sequence of Nuclear receptor subfamily 0 group B member 1 (P51843 whole entry): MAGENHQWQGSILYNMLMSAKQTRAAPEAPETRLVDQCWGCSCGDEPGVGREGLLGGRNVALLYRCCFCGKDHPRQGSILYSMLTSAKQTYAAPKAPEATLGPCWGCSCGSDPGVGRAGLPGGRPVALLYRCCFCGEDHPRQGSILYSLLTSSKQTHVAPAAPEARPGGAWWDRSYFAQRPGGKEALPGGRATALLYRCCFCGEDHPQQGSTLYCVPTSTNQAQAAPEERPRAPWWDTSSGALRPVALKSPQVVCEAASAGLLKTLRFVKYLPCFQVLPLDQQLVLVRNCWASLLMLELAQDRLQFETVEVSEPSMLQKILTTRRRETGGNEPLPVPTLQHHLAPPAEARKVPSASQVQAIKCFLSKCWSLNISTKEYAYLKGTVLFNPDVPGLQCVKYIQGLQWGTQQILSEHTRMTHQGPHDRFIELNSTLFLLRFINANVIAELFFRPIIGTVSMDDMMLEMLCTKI
Sequence of Nucleotide-binding oligomerization domain-containing protein 2 (Q9HC29 whole entry, the tested form may be a part): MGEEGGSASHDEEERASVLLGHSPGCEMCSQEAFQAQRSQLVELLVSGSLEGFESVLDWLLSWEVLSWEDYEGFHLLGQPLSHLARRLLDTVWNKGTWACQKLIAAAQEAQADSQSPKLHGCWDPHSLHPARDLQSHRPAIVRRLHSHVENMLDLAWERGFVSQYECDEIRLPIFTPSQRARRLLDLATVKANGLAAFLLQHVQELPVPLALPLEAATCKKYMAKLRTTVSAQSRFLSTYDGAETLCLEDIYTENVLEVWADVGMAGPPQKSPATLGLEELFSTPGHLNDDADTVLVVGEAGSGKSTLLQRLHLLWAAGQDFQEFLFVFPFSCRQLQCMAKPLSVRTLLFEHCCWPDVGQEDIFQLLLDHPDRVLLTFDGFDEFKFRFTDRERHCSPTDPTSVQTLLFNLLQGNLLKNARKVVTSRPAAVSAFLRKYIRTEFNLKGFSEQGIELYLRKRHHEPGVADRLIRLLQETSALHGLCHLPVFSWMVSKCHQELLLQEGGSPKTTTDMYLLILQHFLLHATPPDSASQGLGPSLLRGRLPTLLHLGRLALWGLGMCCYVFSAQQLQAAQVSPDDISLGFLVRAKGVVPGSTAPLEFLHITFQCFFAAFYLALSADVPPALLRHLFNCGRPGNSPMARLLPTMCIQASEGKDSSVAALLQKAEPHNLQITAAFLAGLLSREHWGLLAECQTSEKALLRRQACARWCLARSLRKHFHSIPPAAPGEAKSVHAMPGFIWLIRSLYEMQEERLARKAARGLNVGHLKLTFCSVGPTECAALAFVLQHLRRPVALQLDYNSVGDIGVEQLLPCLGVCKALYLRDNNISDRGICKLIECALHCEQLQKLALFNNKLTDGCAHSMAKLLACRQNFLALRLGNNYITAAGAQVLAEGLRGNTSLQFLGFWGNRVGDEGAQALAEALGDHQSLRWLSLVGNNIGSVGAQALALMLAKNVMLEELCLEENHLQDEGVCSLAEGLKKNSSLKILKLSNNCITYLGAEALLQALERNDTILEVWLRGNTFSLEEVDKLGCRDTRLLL

SMILES: CCCCn1c(=N)n(CC(=O)c2ccc(Br)s2)c2ccccc21
IC50 [1]: 1.42 µM (active) | AC50 [2]: 7.45 µM (active) | AC50 (INS1): 7.71 µM (active) | AC50 (A-375): 30.3 µM (active)

SMILES: COc1ccc(CNC(=O)CSc2n[nH]c3c4cc(C)ccc4nc-3n2)cc1
IC50 [3]: 11 µM (inactive) | IC50 [4]: 83.3 µM (inactive) | IC50 [5]: 0.72 µM (active)

IC50 [6]: 21.1 µM (active) | IC50 [7]: > 100 µM (inactive) | IC50 (Prothrombin): 28.1 µM (active)
SMILES: CCOC(=O)CSc1nc2ccccc2n1C(=O)OCC

SMILES: C=CCNC(=S)NNC(=O)c1ccc(=O)n(Cc2ccc(Cl)cc2Cl)c1
IC50 [3]: 281 µM (inactive) | IC50 [4]: 83.3 µM (inactive) | IC50 [5]: 13.4 µM (inactive)

IC50 [8]: 9.71 µM (active) | IC50 [9]: 30.6 µM (active)
SMILES: O=C(CSc1nnc(-c2cc3ccccc3cc2O)n1Cc1ccco1)N1CCc2ccccc2C1

SMILES: COC(=O)c1ccc2nc(-c3ccc4c(c3)OCO4)cn2c1
AC50 (HEK293 [10]): 1.57 µM (active) | IC50 (cells): > 67.5 µM (inactive) | IC50 [11]: > 0.0925 µM (active) | AC50 [12]: > 52 µM (inactive) | AC50 [13]: 2.13 µM (active) | AC50 [14]: 2.22 µM (active) | AC50 [15]: > 52 µM (inactive)

SMILES: O=S(=O)(Nc1cccc(-c2cn3cccnc3n2)c1)c1ccc(-c2ccccc2)cc1
EC50 (HEK293 [16]): 8.6 µM (active) | IC50 (HEK293 [17]): 6.52 µM (active) | IC50 (HEK293 [18]): 14.5 µM (active) | EC50 [19]: 10.3 µM (active) | IC50 (HEK293 [20]): 6.98 µM (active) | IC50 (HEK293 [21]): > 20 µM (inactive) | EC50 [22]: 4.33 µM (active)

IC50 (Albumin): > 94.1 µM (inactive)
SMILES: CC(C)C(=O)Nc1ccc(C(=O)NNC(=S)NC(=O)c2ccco2)cc1

SMILES: COc1ccc(C2c3ccc(O)cc3Oc3ncn4nc(-c5ccccn5)nc4c32)cc1OC (stereo unspecified)
AC50 [23]: 122 µM (active)
